Among the data in BindingDB's records for doi:10.7270/Q2W37TT2 (Johns Hopkins Ion Channel Center, 2011) are IC50 values, retold here.

Molecules are shown by their SMILES.

The target of the assay is Potassium voltage-gated channel subfamily KQT member 2 (Rattus norvegicus, UniProt O88943). The assay can be described thus: blockers of KCNQ2 channel current – cell-based, automated electrophysiology, set II, rat KCNQ2, dose response (AID 588637).
Chain of Potassium voltage-gated channel subfamily KQT member 2 (O88943 whole entry): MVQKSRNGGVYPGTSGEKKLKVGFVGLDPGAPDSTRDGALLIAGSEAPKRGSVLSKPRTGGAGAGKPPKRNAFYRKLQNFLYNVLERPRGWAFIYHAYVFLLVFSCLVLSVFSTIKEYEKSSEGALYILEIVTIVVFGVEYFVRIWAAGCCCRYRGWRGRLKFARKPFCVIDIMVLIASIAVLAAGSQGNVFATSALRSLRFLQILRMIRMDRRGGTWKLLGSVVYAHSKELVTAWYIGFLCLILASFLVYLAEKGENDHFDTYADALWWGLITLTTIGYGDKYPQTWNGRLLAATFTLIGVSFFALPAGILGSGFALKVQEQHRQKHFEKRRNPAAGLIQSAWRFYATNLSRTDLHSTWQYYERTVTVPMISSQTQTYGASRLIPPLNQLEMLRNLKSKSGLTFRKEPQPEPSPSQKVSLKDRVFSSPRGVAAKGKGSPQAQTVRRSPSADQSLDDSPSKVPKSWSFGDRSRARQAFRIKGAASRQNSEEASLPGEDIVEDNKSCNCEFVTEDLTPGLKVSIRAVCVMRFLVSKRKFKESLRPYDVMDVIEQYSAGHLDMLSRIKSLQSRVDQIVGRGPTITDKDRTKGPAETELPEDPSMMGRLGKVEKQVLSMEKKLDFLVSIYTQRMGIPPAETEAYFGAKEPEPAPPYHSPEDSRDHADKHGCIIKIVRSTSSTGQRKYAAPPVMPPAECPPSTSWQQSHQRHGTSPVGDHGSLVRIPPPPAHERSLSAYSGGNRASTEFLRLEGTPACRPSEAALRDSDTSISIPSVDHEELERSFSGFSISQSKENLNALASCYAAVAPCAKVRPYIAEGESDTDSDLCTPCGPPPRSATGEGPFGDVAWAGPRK

As usually defined, the IC50 is the concentration at which inhibition is half-maximal. Low readings indicate greater potency, high ones weaker potency. Consider `COc1ccc(-[n+]2c(-c3ccccc3)cc(-c3ccc(C)cc3)cc2-c2ccccc2)cc1`, for which half-maximal inhibition (IC50) required 11.1 µM.

On to `CC(N=Nc1nc(N2CCCCCC2)nc(N2CCCCCC2)n1)c1ccccc1` (configuration not stated) [(1E)-1-phenylethanone (4,6-diazepan-1-yl-1,3,5-triazin-2-yl)hydrazone], for which 1.62 µM corresponded to half-maximal inhibition (IC50).
